Data as given in patent publication US8686113B2 (priority 2009, dated 2014).
≈ marks a conversion by molar mass, not a printed value. Like-named read-outs stand apart in the source and are kept apart here. Non-standard residues stand in square brackets, D forms with d. Residues, ends and D or L forms follow the SMILES beside them. No end group written: not given here. Hyp = O=C(O)[C@@H]1C[C@@H](O)CN1

Experiments:
M. luteus 10240 [1] = test: Growth inhibition assay (microdilution MIC); assay type: cell-based, Micrococcus luteus; settings: 10240, 20 h
Outline: (§1)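 Broth microdilution in 1% TSB with twofold peptide series, final 128 μg/mL to 62.5 ng/mL, against 5×10^6 bacteria/mL stock suspension added 1:1. Incubated 20 h at 37 °C, growth read by absorbance at 595 nm; MIC is the lowest concentration with no growth, determined in triplicate.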

[2] = system: P. aeruginosa 10 J. Wilson
[3] = system: K. pneumoniae K6 ATCC 700603; settings: ATCC 700603
E. coli ATCC BAA-457 = settings: ¼ Muller-Hinton medium
[4] = system: S. typhimurium ATCC 14028
[5] = system: S. typhimurium ATCC 700408
E. coli D31 J. Wilson = settings: ¼ Muller-Hinton medium
[6] = system: S. typhimurium s5 (J. Weiser); settings: ¼ Muller-Hinton medium
K. pneumoniae ATCC 27799 = settings: ATCC 27799
E. coli 045-849 SENTRY = settings: ¼ Muller-Hinton medium
[7] = mouse, serum, Half-life in 25% mouse serum, 25% aqueous mouse serum, 37° C., 75 μg/mL peptide
Procedure: (§2) For this, the peptides and peptidomimetics were dissolved in water, mouse serum was added and the peptide concentration was adjusted to 75 μg/mL. While shaking continuously, the mixture was incubated at 37° C. After 0, 30, 60, 120, 240 and 360 minutes, in each case an aliquot was taken and mixed with 15% aqueous trichloroacetic acid (Carl Roth GmbH & Co. KG; Karlsruhe, Germany). After incubation on ice for a further 10 minutes, the precipitated serum proteins were centrifuged off (5 min, 13400 rpm, MiniSpin, Eppendorf AG, Hamburg, Germany). The supernatant was removed, neutralized with 1 mol/L aqueous sodium hydroxide solution (Fluke Chemie GmbH, Buchs, Switzerland) and stored at −20° C. until analysis.
(§3) The supernatants were analyzed by RP-HPLC with a linear acetonitrile gradient (Biosolve BV, Valkenswaard, The Netherlands) in the presence of 0.1% trifluoroacetic acid (TFA, UV-grade, Fluka Chemie GmbH, Buchs, Switzerland) as ion-pairing reagent. The fractions were co-crystallized with α-cyanohydroxycinnamic acid (Bruker Daltonik GmbH; Bremen, Germany) as matrix (5.3 mg/mL in 50% acetonitrile in 0.1% aqueous TFA) and were analyzed with a tandem mass spectrometer (MALDI-TOF/TOF-MS, 4700 Proteomics Analyzer; Applied Biosystems GmbH, Weiterstadt, Germany) in the positive-ion reflector mode. The proportion of intact peptides and their degradation products or metabolites could thus be identified and quantified at the individual time points. The control used was 25% aqueous mouse serum, which was analyzed in parallel for the same time intervals.

E. coli BL21 A1 = assay type: cell-based, Escherichia coli; settings: BL21, 20 h
Outline: as §1

[8] = mouse, serum
Procedure: as §2, §3

human erythrocytes = test: Hemolysis test; assay type: cell-based; settings: 1 h at 37° C., relative to Triton X-100
Source text: Another possibility for investigating the cytotoxicity of the peptides and peptide derivatives is the hemolysis test. The hemolytic activity is investigated on human erythrocytes (Ryge T S & Hansen P R. Potent antibacterial lysine-peptoid hybrids identified from a positional scanning combinatorial library. Bioorganic & Medicinal Chemistry 14: 4444-51, 2006), which the Leipzig University Hospital (Germany) made available as human erythrocyte concentrate in sodium chloride-adenine-glucose-mannitol buffer (stored at 4° C.). The erythrocytes were centrifuged off at 1000 g and washed three times with ten times the volume of cold phosphate-buffered saline (PBS, pH 7.4). The erythrocytes were diluted to a final concentration of 1% in PBS. One hundred microliters of erythrocyte suspension was pipetted into each V-shaped well of a 96-well polypropylene microtiter plate (Greiner Bio-One GmbH). Then 100 μL of the peptides dissolved in PBS was added to each position, to obtain a dilution series from 600 μg/mL to 4.7 μg/mL in seven dilution steps. The microtiter plate was incubated at 37° C. for 1 h and then centrifuged at 1000*g. 100 μL was taken from the supernatant, transferred to a 96-well flat-bottomed polystyrene microtiter plate (Greiner Bio-One GmbH) and the absorption was determined at 405 nm in a Sunrise microtiter plate reader (Tecan Trading AG, Mannedorf, Switzerland), to evaluate the release of the heme group. PBS or 0.1% Triton X-100® ((p-tert-octylphenoxy) polyethoxyethanol; Fluka Chemie GmbH, Buchs, Switzerland) and melittin (SIGMA-Aldrich-Laborchemikalien, Taufkirchen, Germany) were used as negative or positive controls. All hemolysis tests were carried out twice independently as double determination and the degree of hemolysis was determined from the following equation (Park Y et al. A Leu-Lys-rich antimicrobial peptide: activity and mechanism. Biochimica et Biophysica Acta-Proteins and Proteomics 1645: 172-82, 2003): Epeptide−EPBS)/ETriton−EPBS)×100% E=extinction at 405 nm

[9] = background statement; cited from earlier work
M. luteus 10240 [10] = assay type: cell-based, Micrococcus luteus; settings: alanine scan
Procedure: The purified peptides and peptide derivatives were diluted in water to a final concentration of 500 μg/mL. The test microbes were plated out from a culture in the logarithmic growth phase at a concentration of approx. 3×10^5 cells/mL in 1% tryptic soy broth and 1.2% agarose (Fluka Chemie GmbH, Buchs, Switzerland). With spacing of 3 cm, in each case 10 μL of aqueous peptide solution (500 μg/mL) or 10 μL of water and antibiotic solution as controls were added dropwise. After incubation for 20 h at 37° C., the inhibition zone diameter (IZD) was determined. All tests were performed in aerobic conditions.

[11] = Stability against bacterial proteases in E. coli lysate; assay type: in vitro ADME; settings: E. coli lysate with 0.5 mg/mL protein concentration, 37° C.
Procedure: For the bacterial lysate, 500 mL of nutrient broth (Carl Roth GmbH+Co. KG, Karlsruhe) was inoculated with E. coli BL21 A1 and incubated overnight at 37° C. 2×250 mL bacterial suspension were centrifuged for 25 min at 5000 rpm and 4° C. in a Beckman Avanti™ J-20-XP centrifuge with JLA-10.500 rotor (Beckman Coulter, Fullerton, U.S.A.). The pellets were each suspended in 30 mL PBS (pH 7.4) and centrifuged again in a Beckman Allegra™ 2IR centrifuge (Beckman Coulter, Fullerton, U.S.A.). The pellets were each suspended in 10 mL PBS and were disrupted with ultrasound (Vibra-cell™ microtip, Fisher Bioblock Scientific, Illkirch, France) 2×5 min (750 W; amplitude 40%; 2 s on/3 s off) on ice. The bacterial lysates were combined and 1 mL aliquots were centrifuged at 15400 rpm for 20 min at 4° C. (Beckman Allegra™). The supernatants were removed and stored at −20° C. The protein content of the bacterial lysate was determined by protein determination according to Bradford.
A solution of 0.15 μg/mL peptide in bacterial lysate with protein content of 1.5 mg/mL or 0.5 mg/mL was incubated at 37° C. After 0, 30, 60, 120, 240 or 360 min, 200 μL was taken from each and the proteins were precipitated with 50 μL of 15% trichloroacetic acid. Then it was incubated for 10 min at 4° C. and then centrifuged for 5 min at 13000 rpm in a Minispin desktop centrifuge. 210 μL was taken from the supernatant and neutralized with 1 mol/L sodium hydroxide solution. The intact peptide and the degradation products were analyzed by HPLC. 60 μL of 3% aqueous acetonitrile with 0.1% trifluoroacetic acid (TFA) was added to the solution and 250 μL of the mixture was injected. After chromatographic separation, the constituents were identified by MALDI-TOF-MS,
In order to investigate the stability against bacterial proteases, a lysate was prepared from an overnight culture of E. coli BL21 A1 and the peptides were incubated in it. Using Bradford protein determination, the protein concentration was adjusted to 0.5 or 1.5 mg/mL.

[12] = system: Escherichia coli DSM 10233
[13] = system: Klebsiella pneumoniae DSM 681
[14] = system: Pseudomonas aeruginosa DSM 3227
[15] = E. coli lysate with 0.5 mg/mL protein concentration; settings: E. coli BL21 A1, 37° C., up to 360 min

## CC[C@H](C)[C@H](NC(=O)[C@H](CCCNC(=N)N)NC(=O)[C@H](CCCNC(=N)N)NC(=O)[C@@H]1C[C@@H](O)CN1C(=O)[C@@H]1CCCN1C(=O)[C@H](CCCNC(=N)N)NC(=O)[C@@H]1CCCN1C(=O)[C@H](CCCNC(=N)N)NC(=O)[C@@H]1CCCN1C(=O)[C@H](CC(C)C)NC(=O)[C@H](Cc1ccc(O)cc1)NC(=O)[C@@H]1CCCN1C(=O)[C@@H]1CCCN1C(=O)[C@H](CCCCN)NC(=O)[C@H](CC(=O)O)NC(=O)[C@@H](N)C(C)C)C(=O)N[C@@H](Cc1ccc(O)cc1)C(=O)N[C@@H](CC(N)=O)C(=O)N[C@@H](CCCNC(=N)N)C(N)=O [compound 24] (H-VDKPPYLPRPRP[Hyp]RRIYNR-NH2)
M. luteus 10240 [1]
  MIC M. luteus 10240: 8 µg/mL (≈ 3.33 µM)
P. vulgaris ATCC 6896; ATCC 6896
  MIC P. vulgaris ATCC 6896: 128 µg/mL (≈ 53.2 µM)
[2]
  MIC P. aeruginosa 10 J. Wilson: 2 µg/mL (≈ 0.831 µM)
[3]
  MIC K. pneumoniae K6 ATCC 700603: 8 µg/mL (≈ 3.33 µM)
E. coli ATCC BAA-457
  MIC E. coli SEQ 102ATCC # BAA-4 57: 4 µg/mL (≈ 1.66 µM)
[4]
  MIC S. typhimurium ATCC 14028: 2 µg/mL (≈ 0.831 µM)
[5]
  MIC S. typhimurium ATCC 700408: 0.13 µg/mL (≈ 0.054 µM)
P. mirabilis ATCC 7002; ATCC 7002
  MIC P. mirabilis ATCC 7002: 128 µg/mL (≈ 53.2 µM)
E. coli D31 J. Wilson
  MIC E. coli D31 J. Wilson: 1 µg/mL (≈ 0.416 µM)
[6]
  MIC S. typhimurium s5 (J. Weiser): 2 µg/mL (≈ 0.831 µM)
S. saprophyticus 15305; 15305
  MIC S. saprophyticus 15305: 16 µg/mL (≈ 6.65 µM)
K. pneumoniae ATCC 27799
  MIC K. pneumoniae ATCC 27799: 8 µg/mL (≈ 3.33 µM)
E. coli 045-849 SENTRY
  MIC E. coli 045-849 SENTRY: 2 µg/mL (≈ 0.831 µM)
P. aeruginosa 39324
  MIC P. aeruginosa 39324: 4 µg/mL (≈ 1.66 µM)
K. pneumoniae 012-3131
  MIC K. pneumoniae 012-3131: 2 µg/mL (≈ 0.831 µM)
[7]
  half-life: 1 h
E. coli BL21 A1
  MIC E. coli BL21 A1: 8 µg/mL (≈ 3.33 µM)
[8]
  half-life: 0.583 h

## (p-tert-octylphenoxy) polyethoxyethanol [Triton X-100, reference compound]
Human erythrocytes
  Degree of hemolysis [%] at 600 μg/mL: 100%

## GKPRPYSPRPTSHPRPIRV [compound 89]
Human erythrocytes
  Degree of hemolysis [%] at 600 μg/mL: 1.1%

## GKPRPYSPRPTSHPRPIRV-OH [SEQ ID NO. 89, reference compound]
M. luteus 10240 [1]
  MIC M. luteus 10240: 0.5 µg/mL
[9]
  degradation in mammalian serum (25%): broken down within an hour

## GNNRPVYIPQPRPPHPRL [compound 87]
Human erythrocytes
  Degree of hemolysis [%] at 600 μg/mL: 1.2%

## H-GNNRPVYIPQPRPPHPRL-OH [compound 87]
P. vulgaris ATCC 6896; ¼ Muller-Hinton medium
  MIC P. vulgaris ATCC 6896: >
[2]
  MIC P. aeruginosa 10 J. Wilson: 32 µg/mL
[3]
  MIC K. pneumoniae K6 ATCC 700603: 16 µg/mL
E. coli ATCC BAA-457
  MIC E. coli SEQ 102ATCC # BAA-4 57: 1 µg/mL
[4]
  MIC S. typhimurium ATCC 14028: 0.5 µg/mL
[5]
  MIC S. typhimurium ATCC 700408: 0.13 µg/mL
P. mirabilis ATCC 7002; ¼ Muller-Hinton medium
  MIC P. mirabilis ATCC 7002: >
E. coli D31 J. Wilson
  MIC E. coli D31 J. Wilson: 1 µg/mL
[6]
  MIC S. typhimurium s5 (J. Weiser): 0.5 µg/mL
S. saprophyticus 15305; ¼ Muller-Hinton medium
  MIC S. saprophyticus 15305: >
K. pneumoniae ATCC 27799
  MIC K. pneumoniae ATCC 27799: 4 µg/mL
E. coli 045-849 SENTRY
  MIC E. coli 045-849 SENTRY: 0.5 µg/mL
P. aeruginosa 39324
  MIC P. aeruginosa 39324: 64 µg/mL
K. pneumoniae 012-3131
  MIC K. pneumoniae 012-3131: 16 µg/mL
E. coli BL21 A1
  MIC E. coli BL21 A1: 2 µg/mL

## H-VDKPPYLPRPRPPRRAYNR-NH2 [SEQ ID NO. 44]
M. luteus 10240 [10]
  increase in inhibition zone relative to oncocin, M. luteus: 0.7 cm

## H-VDKPPYLPRPRPPRRIYAR-NH2 [SEQ ID NO. 46]
M. luteus 10240 [10]
  increase in inhibition zone relative to oncocin, M. luteus: 0.7 cm

## H-VDKPPYLPRPRPPRRIYNR-NH2 [compound 18]
[11]
  half-life: 1 h
[2]
  MIC P. aeruginosa 10 J. Wilson: 8 µg/mL
[3]
  MIC K. pneumoniae K6 ATCC 700603: 8 µg/mL
E. coli ATCC BAA-457
  MIC E. coli SEQ 102ATCC # BAA-4 57: 4 µg/mL
[4]
  MIC S. typhimurium ATCC 14028: 2 µg/mL
[6]
  MIC S. typhimurium s5 (J. Weiser): 4 µg/mL
K. pneumoniae ATCC 27799
  MIC K. pneumoniae ATCC 27799: 16 µg/mL
E. coli 045-849 SENTRY
  MIC E. coli 045-849 SENTRY: 4 µg/mL
Human erythrocytes
  Degree of hemolysis [%] at 600 μg/mL: 1.5%
[7]
  half-life: 1 h
[12]
  MIC E. coli DSM 10233: 16 µg/mL
[13]
  MIC K. pneumoniae DSM 681: 4 µg/mL
[14]
  MIC P. aeruginosa DSM 3227: >32 µg/mL
[8]
  half-life: 0.5 h

## VDKGSYLPRPTPPRPIYNRN-NH2 [SEQ ID NO. 91]
[9]
  half-life in mammalian serum (25%): 2 h

## VDKPPYLPRPRP-4tHyp-R-4tHyp-Tle-YNO-NH2
[15]
  not cleaved: >240 min, 90%

## VDKPPYLPRPRPPRO-Tle-YNO-NH2
[15]
  not cleaved: >240 min, 90%
